The values that follow come from PubChem BioAssay (NCI).

Test systems include CAKI-1 renal; DU-145 prostate; NCI-H23 lung; NCI-H522 lung; OVCAR-4 ovarian; RPMI-8226 leukemia; UO-31 renal; PC-3 prostate.
What all share (test): growth of human tumour cells (NCI), 48 h

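Five compound concentrations were applied to cells in 96-well plates for 48 hours; endpoints were derived by simple linear interpolation of the resulting dose-response curve. Abbreviation: GI50, concentration required for 50% inhibition of growth. TGI denotes the concentration required for complete inhibition of growth.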

For `COc1ccc(-c2cc(=O)c3c(OC)c(OC)c(OC)c(OC)c3o2)c(OC)c1`, the TGI in the assay on CAKI-1 renal is 81.9 µM; in the assay on DU-145 prostate, over 100 µM; in the assay with NCI-H23 lung, 58.5 µM; in the assay with NCI-H522 lung, 29.1 µM; in the assay with OVCAR-4 ovarian, 94.4 µM; in the assay on RPMI-8226 leukemia, over 100 µM. Also, the TGI with UO-31 renal was determined as 62.8 µM.

Regarding `Cc1nc(C(N)=S)sc1C(=O)C/C(=N/N)C(=O)Nc1ccc(Cl)cc1`, the TGI in the assay with CAKI-1 renal, with NCI-H23 lung, in the assay with NCI-H522 lung, with OVCAR-4 ovarian, with PC-3 prostate and with RPMI-8226 leukemia was over 100 µM in each case. The TGI in the assay with UO-31 renal is over 100 µM.

`COc1ccc2c(c1)/C(=C/c1cc(OC)c(OC)c(OC)c1)C(=O)N2C`: the GI50 was 2.41 µM in the assay on CAKI-1 renal; 4.42 µM with NCI-H23 lung; 2.24 µM with NCI-H522 lung; 4.66 µM with OVCAR-4 ovarian; 2.92 µM in the assay with PC-3 prostate; 1.59 µM in the assay with RPMI-8226 leukemia. Moreover, the GI50 in the assay with UO-31 renal was 3.91 µM. The TGI was over 27.4 µM with CAKI-1 renal; over 100 µM in the assay on NCI-H23 lung; 6.39 µM in the assay on NCI-H522 lung; over 77.5 µM in the assay with OVCAR-4 ovarian; over 100 µM in the assay with PC-3 prostate; 4.43 µM in the assay with RPMI-8226 leukemia. Also, the TGI in the assay on UO-31 renal was over 55.7 µM.

Regarding `COc1cc(/C=C2\C(=O)Nc3cccc(Cl)c32)cc(OC)c1OC`, the GI50 with CAKI-1 renal is over 100 µM; in the assay with NCI-H23 lung, over 100 µM; with NCI-H522 lung, over 100 µM; in the assay with OVCAR-4 ovarian it was over 100 µM; in the assay on PC-3 prostate, over 100 µM; in the assay with RPMI-8226 leukemia, 53.7 µM. Also, the GI50 with UO-31 renal is over 100 µM. Also, the TGI in the assay on CAKI-1 renal, in the assay with NCI-H23 lung, in the assay with NCI-H522 lung, with OVCAR-4 ovarian, with PC-3 prostate and in the assay on RPMI-8226 leukemia was over 100 µM in each case. The compound also had a TGI in the assay on UO-31 renal of over 100 µM.

Turning to `CNCCCNCCCN1C(=O)c2ccc3c4c(ccc(c24)C1=O)C(=O)N(CCCNCc1ccccc1OC)C3=O`, the GI50 in the assay on DU-145 prostate is 1.05 µM; with NCI-H23 lung it was 1.26 µM; in the assay with NCI-H522 lung, 1.23 µM; in the assay with OVCAR-4 ovarian, 0.642 µM; in the assay on PC-3 prostate it was 1.6 µM; in the assay with RPMI-8226 leukemia, 1.64 µM. Besides, in the assay on UO-31 renal, the GI50 is 5.88 µM. For the same compound, the TGI turned out to be 2.39 µM with DU-145 prostate; 4.12 µM in the assay with NCI-H23 lung; 2.83 µM with NCI-H522 lung; 2.04 µM in the assay with OVCAR-4 ovarian; 10.1 µM with PC-3 prostate; 9.44 µM in the assay on RPMI-8226 leukemia. This compound also returned a TGI with UO-31 renal of 27.5 µM.

Turning to `Cc1cc2cn3c4cccnc4[nH]c(=O)c3c2cc1C`, the GI50 with CAKI-1 renal is 1.42 µM; in the assay with DU-145 prostate, 1.83 µM; with NCI-H23 lung, 1.37 µM; with OVCAR-4 ovarian, 1.6 µM; in the assay on PC-3 prostate it was 1.42 µM; in the assay on RPMI-8226 leukemia, 1.89 µM. In the assay on UO-31 renal, the GI50 was 1.5 µM. Besides, the TGI with CAKI-1 renal is 2.92 µM; in the assay with DU-145 prostate, 3.28 µM; in the assay with NCI-H23 lung, 2.74 µM; in the assay on OVCAR-4 ovarian, 3.19 µM; in the assay on PC-3 prostate, 2.89 µM; with RPMI-8226 leukemia it was 4.66 µM. Besides, the TGI with UO-31 renal is 2.97 µM.

With `O=[N+]([O-])c1ccc2nc3ccccc3cc2c1`, the TGI with CAKI-1 renal worked out at 0.0944 µM; in the assay on DU-145 prostate, 8.12 µM; in the assay on NCI-H23 lung it was 6.22 µM; in the assay with NCI-H522 lung, 9.79 µM; with OVCAR-4 ovarian it was 10.4 µM; with PC-3 prostate, 10.2 µM. For the same compound, the TGI with UO-31 renal was found to be 16.7 µM.

Consider `COc1ccc(N(C)c2c3ccccc3nc3[nH]c4ccccc4c23)cc1`, for which the GI50 in the assay with CAKI-1 renal was 0.774 µM; with DU-145 prostate, 0.675 µM; in the assay with NCI-H23 lung, 0.702 µM; with NCI-H522 lung it was 4.98 µM; in the assay on PC-3 prostate it was 0.424 µM; in the assay on RPMI-8226 leukemia it was 0.139 µM. In addition, the GI50 with UO-31 renal is 2.83 µM. For the same compound, the TGI with CAKI-1 renal was 3.07 µM; in the assay with DU-145 prostate, 3.69 µM; in the assay with NCI-H23 lung it was 2.04 µM; in the assay on NCI-H522 lung it was 9.55 µM; with PC-3 prostate, 2.63 µM; in the assay with RPMI-8226 leukemia it was 0.528 µM. The same compound displayed a TGI in the assay on UO-31 renal of 22.2 µM.

Take `CC1(C)CC2(C)CC1CC2NC(=O)CCN1CCOCC1` (stereo not drawn): the TGI with CAKI-1 renal, in the assay with DU-145 prostate, in the assay on NCI-H23 lung, with NCI-H522 lung, in the assay with OVCAR-4 ovarian and with PC-3 prostate was over 100 µM throughout. The TGI in the assay on UO-31 renal is over 100 µM.

Regarding `COc1ccccc1-c1cc(=O)c2ccc(OC)c(OC)c2o1`, the TGI in the assay with CAKI-1 renal, with DU-145 prostate, in the assay on NCI-H23 lung, in the assay with NCI-H522 lung, in the assay on OVCAR-4 ovarian and in the assay with RPMI-8226 leukemia was over 100 µM in each case. Also, in the assay with UO-31 renal, the TGI is over 100 µM.

Take `O=C(Nc1cccc(-n2cc(-c3ccncc3)c(-c3ccc(O)c(Cl)c3)n2)c1)Nc1cccc(C(F)(F)F)c1`: the GI50 with CAKI-1 renal was 1.87 µM; in the assay with DU-145 prostate, 3.01 µM; in the assay with NCI-H23 lung, 2.59 µM; in the assay on NCI-H522 lung, 1.55 µM; in the assay on PC-3 prostate it was 2.47 µM; in the assay with RPMI-8226 leukemia, 1.77 µM. Besides, the GI50 in the assay on UO-31 renal was 2.01 µM. Moreover, the TGI was 5.84 µM with CAKI-1 renal; 11.8 µM in the assay on DU-145 prostate; 8.81 µM with NCI-H23 lung; 4.31 µM in the assay on NCI-H522 lung; 8.96 µM with PC-3 prostate; 5.13 µM in the assay with RPMI-8226 leukemia. The compound further came in with a TGI in the assay with UO-31 renal of 7.05 µM.

As to `COc1ccc2c(c1)C1(C(=O)N2)C(C#N)=C(c2ccccc2)Nc2c1c(-c1ccccc1)nn2-c1ccccc1` (stereo not drawn), the GI50 was 2.71 µM with DU-145 prostate; 2.51 µM in the assay on NCI-H23 lung; 3.75 µM with NCI-H522 lung; 1.77 µM in the assay on OVCAR-4 ovarian; 1.98 µM in the assay with PC-3 prostate; 4.07 µM in the assay on RPMI-8226 leukemia. Besides, the GI50 in the assay with UO-31 renal is 15.8 µM. In addition, the TGI was 6.82 µM in the assay on DU-145 prostate; 7.51 µM with NCI-H23 lung; 18.3 µM with NCI-H522 lung; 3.5 µM in the assay on OVCAR-4 ovarian; 3.67 µM in the assay on PC-3 prostate; 17.8 µM with RPMI-8226 leukemia. Moreover, the TGI in the assay with UO-31 renal worked out at 30.1 µM.
